The test has as its system C57BL/6J mice. The experiment in a line: Multiple low-dose STZ-induced diabetes in WT C57BL/6J mice (random-fed blood glucose, GTT). Format: in vivo, mouse. Set-up: Random-fed blood glucose (Fig 1E) / GTT blood glucose (Fig 1F): unit not given here. The conditions noted are these: for Random-fed blood glucose (Fig 1E): 30 mg/kg i.p. + STZ; for Random-fed blood glucose (Fig 1E) / GTT blood glucose (Fig 1F): listed as ML355; for GTT blood glucose (Fig 1F): Control (C57BL/6J).

Several values for one entry are separate records, joined by “and”; a condition that tells them apart may be missing. Equal entries are not always repeated.

Consider `COc1cccc(CNc2ccc(S(=O)(=O)Nc3nc4ccccc4s3)cc2)c1O` [VLX-1005], for which the “Random-fed blood glucose (Fig 1E)” value (C57BL/6J, day 0, individual mice) is 180 and 167 and 192 and 187; the “Random-fed blood glucose (Fig 1E)” value (C57BL/6J, day 5, individual mice) is 172 and 214 and 232 and 221; the “Random-fed blood glucose (Fig 1E)” value (C57BL/6J, day 10, individual mice) was 253 and 280 and 275 and 278; the “Random-fed blood glucose (Fig 1E)” value (C57BL/6J, day 15, individual mice) was 347 and 298 and 284 and 335; the “Random-fed blood glucose (Fig 1E)” value (C57BL/6J, day 22, individual mice) is 347 and 428 and 437 and 367; the “Random-fed blood glucose (Fig 1E)” value (C57BL/6J, day 27, individual mice) was 487 and 478 and 512 and 486. In addition, the “Random-fed blood glucose (Fig 1E)” value (C57BL/6J, day -5, individual mice) is 190 and 213 and 199 and 201. Moreover, where the note is “C57BL/6J, 30 mg/kg i.p., day 4 after STZ, individual mice”, the “GTT AUC (Fig 1G)” value was 44930 and 36610 and 49530 and 43880. The “GTT blood glucose (Fig 1F)” value is 164 and 184 and 175 and 154 (30 mg/kg i.p., day 4 after STZ, 0 min after glucose, individual mice); 268 and 395 and 398 and 425 (30 mg/kg i.p., day 4 after STZ, 10 min after glucose, individual mice); 532 and 602 (2×) and 658 (30 mg/kg i.p., day 4 after STZ, 20 min after glucose, individual mice); 682 and 563 and 602 and 586 (30 mg/kg i.p., day 4 after STZ, 30 min after glucose, individual mice); 547 and 425 and 594 and 493 (30 mg/kg i.p., day 4 after STZ, 60 min after glucose, individual mice); 459 and 369 and 530 and 452 (30 mg/kg i.p., day 4 after STZ, 90 min after glucose, individual mice). In addition, the “GTT blood glucose (Fig 1F)” value (30 mg/kg i.p., day 4 after STZ, 120 min after glucose, individual mice) was 366 and 256 and 369 and 398. Under “male WT C57BL/6J mice, 30 mg/kg i.p. daily peri-STZ”, the “Glycemic outcome after STZ” value is recorded as “became overtly hyperglycemic”.

The record behind these values is publication PMC11665553, “12-Lipoxygenase inhibition delays onset of autoimmune diabetes in human gene replacement mice” (JCI Insight, 2024).
